One data set concerns Balb/c male mouse. Nature of the data set: Interferon-inducing activity in mouse (in vivo), serum interferon titer after oral dosing.
The next data set concerns IL-5 production. Briefly: Inhibitory activity against Th2 cytokine produced from sensitized spleen cells: IL-5. Type of data set: cell-based, mouse. The settings on record: Mus musculus, 72 h, OVA-sensitized BALB/c spleen cells, 3 days; for activity at 0.0001 µM: concentration 0.1 nM; for activity at 0.001 µM: concentration 1 nM; for activity at 0.001 µM / activity at 0.01 µM / activity at 0.1 µM: read-out: Inhibitory activity against IL-5 production; for activity at 0.01 µM: concentration 10 nM; for activity at 0.1 µM: concentration 100 nM. The method, then: (§1) A 7-week-old BALB/c mouse was immunized intraperitoneally with aluminum hydroxide gel (4 mg, 100 μl) having 10 μg of ovalbumin adsorbed thereon, and it was subjected to additional immunization with the same agent 14 days later. Seven days thereafter, spleen was taken out, and suspended in RPMI-1640 comprising inactivated fetal bovine serum (10%), 2-mercaptoethanol ([…]), penicillin G (100 U/ml), and streptomycin (100 μg/ml). Thus, a splenic cell suspension was prepared. Ovalbumin (0.5 mg/ml) and a test compound were added to a splenic cell suspension (5×10^6 cell/200 μl/well), and the resultant was cultured at 37° C. in the presence of 5% CO2 for 3 days. The cytokine level in the culture supernatant was quantified by ELISA. IFN-γ and IL-4 were assayed using a kit available from Amersham, and IL-5 was assayed using a kit available from Endogen.

The next data set concerns mouse spleen cell. Nature of the data set: cells. It counts as cell-based. The settings on record: Mus musculus, 24 h, read-out: Interferon-inducing activity: Minimum effective concentration.
The next data set deals with IL-4 production. Briefly: Inhibitory activity against Th2 cytokine produced from sensitized spleen cells: IL-4. The settings on record: Mus musculus, 72 h, OVA-sensitized BALB/c spleen cells, 3 days; for activity at 0.0001 µM: concentration 0.1 nM; for activity at 0.001 µM: concentration 1 nM; for activity at 0.001 µM / activity at 0.01 µM / activity at 0.1 µM: read-out: Inhibitory activity against IL-4 production; for activity at 0.01 µM: concentration 10 nM; for activity at 0.1 µM: concentration 100 nM. It counts as cell-based, mouse. The method, then: as §1

Data set [1] is described as follows: Solubility in citric acid/disodium phosphate buffers. The settings on record: citric acid/disodium phosphate buffer, thermodynamic from solid.
Description: 5.53% citric acid (monohydrate) and 1.75% disodium phosphate (anhydrous) were mixed together to prepare buffers (pH 2.5, 5.5, 7.4). A compound was added thereto, the mixture was stirred in a vortex mixer and subjected to ultrasonication for 30 minutes. Thereafter, the resultant was stirred in a vortex mixer again and then centrifuged at 15,000 rpm for 20 minutes. The levels of the compounds in the supernatants were then quantified by HPLC.
The test system of data set [2] is human peripheral blood mononuclear cells (PBMC). Briefly: Interferon-inducing activity in human peripheral blood mononuclear cells (PBMC), IFN-α ELISA.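 Also: IFN-α in pg/ml with a 1.25 pg/ml detection limit.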 Type of data set: cell-based. The settings on record: 24 h. The method, then: Peripheral bloods were sampled from 5 healthy volunteers using a syringe containing heparin, and peripheral blood mononuclear cells (PBMC) were prepared by density gradient centrifugation utilizing the Lymphoprep™ (NYCOMED PHARMA AS). PBMCs were washed twice in serum-free RPMI 1640 medium and adjusted at 1×10^6 cells/ml in RPMI 1640 medium comprising 10% fetal bovine serum. The product was cultured in the presence of a test compound dissolved in dimethyl sulfoxide (final concentration: 0.1%) in an incubator in the presence of 5% CO^2 at 37° C. for 24 hours. As a control, 0.1% dimethyl sulfoxide containing no test compound was used. The culture supernatant was aseptically collected by filtration. Thereafter, the supernatant was cryopreserved at −20° C. or lower until it was subjected to the assay for IFN-inducing activity. Human IFN-α in the culture supernatant was quantified using a highly sensitive ELISA system (Amersham).

Data set [3] can be described thus: Gastrointestinal absorption in rat (drug level in blood by HPLC). Type of data set: in vivo. The settings on record: blood, SD male rat; for Cmax: read-out: Cmax; for Tmax: read-out: Tmax. The method, then: A test compound was suspended in an aqueous solution of 0.5% carboxymethylcellulose, and the resulting suspension was orally administered to an SD male rat. Blood was sampled with the elapse of time, and the level of the drug in blood was assayed by HPLC.

Where [4] appears, read: dosage 0.03 mg/kg oral, serum 2 h after dosing, Balb/c mouse.
The mark [5] stands for this setting: dosage 0.1 mg/kg oral, serum 2 h after dosing, Balb/c mouse.
Setting [6] is: dosage 0.3 mg/kg oral, serum 2 h after dosing, Balb/c mouse.

≈ marks a conversion by molar mass, not a printed value. Where a name gives a salt, the structure may show the parent alone. Read-outs that look alike come from different tables or passages of the source. Some results are limits rather than exact numbers.

Consider `CCCCOc1nc(N)c2nc(O)n(Cc3ccc(Cl)nc3)c2n1` [Example 1, 2-Butoxy-9-(6-chloro-3-pyridylmethyl)-8-hydroxyadenine], for which, in the data set with Balb/c male mouse (setting [4]), the Interferon-inducing activity is given as 123 ± 87 U/ml. Moreover, the Interferon-inducing activity in the data set on Balb/c male mouse (setting [5]) came to 322 ± 95 U/ml. For the same molecule, the Interferon-inducing activity in the data set with Balb/c male mouse (setting [6]) was found to be 623 ± 32 U/ml. For the same molecule, in the data set on IL-5 production, the activity at 0.0001 µM was 116%, the activity at 0.001 µM came to 41%, the activity at 0.01 µM came out at 16% and the activity at 0.1 µM was determined as 15%. Besides, the minimal effective concentration with mouse spleen cell was 0.001 µM. In the data set on IL-4 production, the activity at 0.0001 µM is 98%, the activity at 0.001 µM worked out at 7%, the activity at 0.01 µM was determined as 2% and the activity at 0.1 µM is less than 1%.
Regarding `CCCCOc1nc(N)c2nc(O)n(Cc3ccc(OC)nc3)c2n1` [Example 2, 2-Butoxy-8-hydroxy-9-(6-methoxy-3-pyridylmethyl)adenine], the Interferon-inducing activity in the data set with Balb/c male mouse (po, 0.01 mg/kg, 2 h) stood at 25 ± 17 U/ml; with Balb/c male mouse (po, 0.03 mg/kg, 2 h), 388 ± 87 U/ml; in the data set on Balb/c male mouse (po, 0.1 mg/kg, 2 h) it was 1211 ± 263 U/ml; in the data set on Balb/c male mouse (po, 0.3 mg/kg, 2 h), 2559 ± 495 U/ml. The activity at 0.0001 µM came out at 98% in the data set on IL-5 production and 96% in the data set with IL-4 production. For the same molecule, the results for the activity at 0.001 µM with IL-5 production and in the data set on IL-4 production were 37% and 4%, respectively. The activity at 0.01 µM in the data set with IL-5 production was 14%; with IL-4 production, less than 1%. The figures for the activity at 0.1 µM with IL-5 production and with IL-4 production were 12% and less than 1%, respectively. The minimal effective concentration in the data set with mouse spleen cell is 0.001 µM.
For the molecule `CCCCNc1nc(N)c2nc(O)n(Cc3ccccn3)c2n1` [Example 20, 2-Butylamino-8-hydroxy-9-(2-pyridylmethyl)adenine], in the data set with IL-5 production, the activity at 0.001 µM worked out at 106%, the activity at 0.01 µM was 71% and the activity at 0.1 µM amounted to 19%. In addition, the minimal effective concentration in the data set with mouse spleen cell stood at 0.03 µM. In addition, in data set [1] (pH 2.5, aqueous buffer), the solubility at 30 min came to 8810 µg/mL (≈ 28100 µM). Moreover, in the data set on IL-4 production, the activity at 0.001 µM amounted to 106%, the activity at 0.01 µM was found to be 23% and the activity at 0.1 µM is 2%.
`CCCCNc1nc(N)c2nc(O)n(Cc3cccnc3)c2n1` [Example 21, 2-Butylamino-8-hydroxy-9-(3-pyridylmethyl)adenine]: the Interferon-inducing activity was determined as 15 ± 8 U/ml in the data set with Balb/c male mouse (po, 0.03 mg/kg, 2 h); 290 ± 134 U/ml in the data set on Balb/c male mouse (po, 0.1 mg/kg, 2 h); 571 ± 164 U/ml in the data set with Balb/c male mouse (po, 0.3 mg/kg, 2 h). Moreover, the activity at 0.001 µM with IL-5 production came to 97%; in the data set with IL-4 production it was 53%. In addition, the activity at 0.01 µM amounted to 23% with IL-5 production and 1% in the data set on IL-4 production. The activity at 0.1 µM is 15% in the data set with IL-5 production and less than 1% in the data set with IL-4 production. In addition, the minimal effective concentration with mouse spleen cell worked out at 0.003 µM. Besides, the solubility at 30 min in data set [1] (pH 2.5, aqueous buffer) is 15000 µg/mL (≈ 47900 µM); in data set [1] (pH 5.5, aqueous buffer) it was 45 µg/mL (≈ 144 µM); in data set [1] (pH 7.4, aqueous buffer), 64 µg/mL (≈ 204 µM).
Turning to `CCCCNc1nc(N)c2nc(O)n(Cc3ccncc3)c2n1` [Example 22, 2-Butylamino-8-hydroxy-9-(4-pyridylmethyl)adenine], the Interferon-inducing activity was determined as 21 ± 9 U/ml with Balb/c male mouse (po, 0.1 mg/kg, 2 h) and 332 ± 83 U/ml in the data set with Balb/c male mouse (po, 0.3 mg/kg, 2 h). Moreover, the activity at 0.001 µM was found to be 115% in the data set with IL-5 production and 88% in the data set with IL-4 production. Besides, the activity at 0.01 µM with IL-5 production amounted to 50%; in the data set with IL-4 production it was 9%. Moreover, the activity at 0.1 µM stood at 18% in the data set on IL-5 production and 1% in the data set on IL-4 production. Also, in the data set on mouse spleen cell, the minimal effective concentration is 0.01 µM. Besides, the solubility at 30 min in data set [1] (pH 2.5, aqueous buffer) was greater than 80000 µg/mL; in data set [1] (pH 5.5, aqueous buffer) it was 73 µg/mL (≈ 233 µM); in data set [1] (pH 7.4, aqueous buffer) it was 16 µg/mL (≈ 51.1 µM).
With `CCCCOc1nc(N)c2nc(O)n(Cc3ccc(C)nc3)c2n1` [Example 25, 2-Butoxy-8-hydroxy-9-(6-methyl-3-pyridylmethyl)adenine], the “Interferon-inducing activity (human IFN-α in culture supernatant)” value in data set [2] (concentration 0.3 nM) worked out at 7 ± 3 pg/mL; in data set [2] (concentration 1 nM), 28 ± 24 pg/mL; in data set [2] (concentration 3 nM), 46 ± 34 pg/mL. The Interferon-inducing activity was 65 ± 52 U/ml with Balb/c male mouse (dosage 0.01 mg/kg oral, serum 2 h after dosing, Balb/c mouse); 151 ± 29 U/ml with Balb/c male mouse (setting [4]); 753 ± 140 U/ml in the data set with Balb/c male mouse (setting [5]); 721 ± 299 U/ml in the data set with Balb/c male mouse (setting [6]). The activity at 0.0001 µM in the data set on IL-5 production is 102%; with IL-4 production, 86%. Besides, the activity at 0.001 µM in the data set with IL-5 production was found to be 31%; with IL-4 production, 2%. Also, the activity at 0.01 µM with IL-5 production was 13%; in the data set with IL-4 production it was less than 1%. The results for the activity at 0.1 µM in the data set with IL-5 production and with IL-4 production were 13% and less than 1%, respectively. In addition, in the data set with mouse spleen cell, the minimal effective concentration turned out to be 0.001 µM. In addition, the solubility at 30 min was greater than 1000 µg/mL in data set [1] (pH 2.5, aqueous buffer); 5 µg/mL (≈ 15.2 µM) in data set [1] (pH 5.5, aqueous buffer); 3 µg/mL (≈ 9.14 µM) in data set [1] (pH 7.4, aqueous buffer).
Turning to `CCCCOc1nc(N)c2nc(O)n(Cc3ccc(C)nc3)c2n1` [Hydrochloride of Example 25, 2-Butoxy-8-hydroxy-9-(6-methyl-3-pyridylmethyl)adenine], the values for the maximum concentration (Cmax) in data set [3] (dose 3 mg/kg oral) and in data set [3] (dose 10 mg/kg oral) were 18 ng/mL and 150 ng/mL, respectively. The Tmax in data set [3] (dose 3 mg/kg oral) worked out at 60 min; in data set [3] (dose 10 mg/kg oral), 15 min.
On to `CCCCNc1nc(N)c2nc(O)n(Cc3ccccc3)c2n1` [Reference Compound 1, 9-Benzyl-2-butylamino-8-hydroxyadenine, reference compound], for which the Interferon-inducing activity is 55 ± 25 U/ml in the data set with Balb/c male mouse (po, 0.1 mg/kg, 2 h) and 275 ± 165 U/ml in the data set on Balb/c male mouse (po, 0.3 mg/kg, 2 h). In addition, the activity at 0.01 µM in the data set on IL-5 production was 92%; in the data set on IL-4 production it was 109%. The results for the activity at 0.1 µM in the data set on IL-5 production and in the data set on IL-4 production were 69% and 24%, respectively. Further, the minimal effective concentration in the data set with mouse spleen cell was found to be 0.1 µM. In addition, the solubility at 30 min is 26 µg/mL (≈ 83.2 µM) in data set [1] (pH 2.5, aqueous buffer); less than 1 µg/mL in data set [1] (pH 5.5, aqueous buffer); less than 1 µg/mL in data set [1] (pH 7.4, aqueous buffer).
Consider `CCCCOc1nc(N)c2nc(O)n(Cc3ccccc3)c2n1` [Reference Compound 2, 9-benzyl-2-butoxy-8-hydroxyadenine, reference compound], for which the “Interferon-inducing activity (human IFN-α in culture supernatant)” value was “— ((−) indicates a detection limit (1.25 pg/ml) or lower)” in data set [2] (concentration 1 nM), 7 pg/mL in data set [2] (concentration 3 nM), 23 ± 22 pg/mL in data set [2] (concentration 10 nM) and 64 ± 40 pg/mL in data set [2] (concentration 30 nM). Besides, the Interferon-inducing activity turned out to be 60 ± 40 U/ml in the data set with Balb/c male mouse (po, 0.03 mg/kg, 2 h); 186 ± 42 U/ml in the data set on Balb/c male mouse (po, 0.1 mg/kg, 2 h); 317 ± 160 U/ml in the data set on Balb/c male mouse (po, 0.3 mg/kg, 2 h). Besides, the activity at 0.0001 µM was found to be 99% with IL-5 production and 107% in the data set with IL-4 production. Besides, the activity at 0.001 µM in the data set on IL-5 production was 79%; with IL-4 production it was 48%. Moreover, the results for the activity at 0.01 µM in the data set on IL-5 production and with IL-4 production were 16% and 1%, respectively. Moreover, the results for the activity at 0.1 µM with IL-5 production and in the data set on IL-4 production were 11% and less than 1%, respectively. Further, the minimal effective concentration with mouse spleen cell is 0.001 µM. In addition, the solubility at 30 min is 2 µg/mL (≈ 6.38 µM) in data set [1] (pH 2.5, aqueous buffer); less than 1 µg/mL in data set [1] (pH 5.5, aqueous buffer); less than 1 µg/mL in data set [1] (pH 7.4, aqueous buffer).

The record behind these values is US7521454B2 (Dainippon Sumitomo Pharma Co., Ltd., priority 2001, dated 2009).
